{
  "source": "patent US9603889B2",
  "about": "“IAP antagonists” (BRISTOL-MYERS SQUIBB COMPANY, priority 2012, dated 2017)",
  "data": [
    {"target": "XIAP BIR3 (N-His-Tb-BIR3(241-356, XIAP)) (Homo sapiens (Human), UniProt P98170)", "sequence (P98170 241-356)": "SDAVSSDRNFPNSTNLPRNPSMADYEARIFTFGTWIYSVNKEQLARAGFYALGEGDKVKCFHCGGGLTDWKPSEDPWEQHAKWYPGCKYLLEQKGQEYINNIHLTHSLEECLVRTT", "type": "binding", "conditions": "130 nM N-His-Tb-BIR3(241-356, XIAP), 1.4 nM fluoresceinated modified SMAC peptide, 60 minutes room temperature; read-out: XIAP BIR3 FPA IC50", "units": {"IC50": "nM"}, "values": [
      {"smiles": "CN[C@@H](C)C(=O)N[C@H](C(=O)N1C[C@@H](NC(=O)c2ccc(CN(Cc3ccc4ccccc4c3)C(=O)[C@@H]3Cc4ccccc4CN3C(=O)[C@@H](NC(=O)[C@H](C)NC)C(C)(C)C)cc2)C[C@H]1C(=O)N[C@@H]1CCCc2ccccc21)C(C)(C)C", "note": "[Example 14, (S)-2-((S)-3,3-Dimethyl-2-((S)-2-(methyl-amino)propanamido)butanoyl)-N-(4-(((3S,5S)-1-((S)-3,3-dimethyl-2-((S)-2-(methylamino)propanamido)butanoyl)-5-(((R)-1,2,3,4-tetra-hydronaphthalen-1-yl)carbamoyl)pyrrolidin-3-yl)carbamoyl)benzyl)-N-(naphthalen-2-ylmethyl)-1,2,3,4-tetrahydro-isoquinoline-3-carboxamide]", "IC50": 40},
      {"smiles": "CN[C@@H](C)C(=O)N[C@H](C(=O)N1C[C@@H](NC(=O)c2ccc(CN(C(=O)[C@@H]3Cc4ccccc4CN3C(=O)[C@@H](NC(=O)[C@H](C)NC)C(C)(C)C)[C@H](C)c3ccc4ccccc4c3)cc2)C[C@H]1C(=O)N[C@@H]1CCCc2ccccc21)C(C)(C)C", "note": "[Example 15, (S)-2-((S)-3,3-Dimethyl-2-((S)-2-(methylamino)propanamido)butanoyl)-N-(4-(((3S,5S)-1-((S)-3,3-dimethyl-2-((S)-2-(methylamino)propanamido)butanoyl)-5-(((R)-1,2,3,4-tetra-hydronaphthalen-1-yl)carbamoyl)pyrrolidin-3-yl)carbamoyl)benzyl)-N-((R)-1-(naphthalen-2-yl)ethyl)-1,2,3,4-tetrahydro-isoquinoline-3-carboxamide]", "IC50": 90},
      {"smiles": "CN[C@@H](C)C(=O)N[C@H](C(=O)N1CCc2ccccc2[C@H]1C(=O)N(CCc1ccccc1)Cc1ccc(C(=O)NC2C[C@@H](C(=O)NC3CCCc4ccccc43)N(C(=O)[C@@H](NC(=O)[C@H](C)NC)C(C)(C)C)C2)cc1)C(C)(C)C", "note": "(some centres unmarked) [Example 16]", "IC50": 70},
      {"smiles": "CN[C@@H](C)C(=O)N[C@H](C(=O)N1C[C@@H](NC(=O)c2ccc(CN(C(=O)[C@@H]3Cc4ccccc4CN3C(=O)[C@@H](NC(=O)[C@H](C)NC)C(C)(C)C)[C@@H](C)c3cccc(Cl)c3)cc2)C[C@H]1C(=O)N[C@@H]1CCCc2ccccc21)C(C)(C)C", "note": "[Example 18, (S)-N-((S)-1-(3-Chlorophenyl)ethyl)-2-((S)-3,3-dimethyl-2-((S)-2-(methylamino)propanamido)butanoyl)-N-(4-(((3S,5S)-1-((S)-3,3-dimethyl-2-((S)-2-(methylamino)propanamido)butanoyl)-5-(((R)-1,2,3,4-tetrahydro-naphthalen-1-yl)carbamoyl)pyrrolidin-3-yl)carbamoyl)benzyl)-1,2,3,4-tetrahydro-isoquinoline-3-carboxamide]", "IC50": 120},
      {"smiles": "CN[C@@H](C)C(=O)N[C@H](C(=O)N1CCc2ccccc2[C@H]1C(=O)N(Cc1ccc(C(=O)N[C@H]2C[C@@H](C(=O)N[C@@H]3CCCc4ccccc43)N(C(=O)[C@@H](NC(=O)[C@H](C)NC)C(C)(C)C)C2)cc1)[C@H](C)c1ccccc1F)C(C)(C)C", "note": "[Example 19, (S)-2-((S)-3,3-Dimethyl-2-((S)-2-(methylamino)propanamido)butanoyl)-N-(4-(((3S,5S)-1-((S)-3,3-dimethyl-2-((S)-2-(methylamino)propanamido)butanoyl)-5-(((R)-1,2,3,4-tetra-hydronaphthalen-1-yl)carbamoyl)pyrrolidin-3-yl)carbamoyl)benzyl)-N-((R)-1-(2-fluorophenyl)ethyl)-1,2,3,4-tetrahydro-isoquinoline-1-carboxamide]", "IC50": 290}
    ]}
  ]
}
